Among the data in ChEMBL document CHEMBL1142543, “Arabinose 5-phosphate analogues as mechanistic probes for Neisseria meningitidis 3-deoxy-D-manno-octulosonate 8-phosphate synthase” (Bioorg Med Chem, 2008) are kcat values, retold here.

The subject of this test is Neisseria meningitidis MC58. In words: Activity at Neisseria meningitidis B MC58 (ATCC BAA355) recombinant 3-deoxy-D-manno-octulosonate 8-phosphate synthase expressed in Escherichia coli BL21 (DE3).

Broadly, the kcat is the maximal rate divided by the concentration of active sites.

Consider `O=C[C@@H](O)[C@H](O)[C@H](O)COP(=O)(O)O`, for which the catalytic constant (kcat) is 2.7 s⁻¹. Consider `O=C[C@@H](O)[C@H](O)[C@@H](O)COP(=O)(O)O`, for which the kcat was 1.1 s⁻¹.
